Assay results taken from patent US20250302775A1, “METHODS FOR THE TREATMENT OF DEPRESSION” (Autobahn Therapeutics, Inc., priority 2022, published 2025).
pIC50: −log10 of the molar value.

Key:
FAAH = target: T1, FAAH (Mus musculus, UniProt O08914); assay: tissue distribution in mice after co-dosing ABX-002 with or without PFI or GFI; type: in vivo; conditions: for Distribution: peripheral or global FAAH inhibitor
T1 construct: from tissue; host or cells: living mice (plasma, liver, brain)
T1 sequence (O08914 1-579): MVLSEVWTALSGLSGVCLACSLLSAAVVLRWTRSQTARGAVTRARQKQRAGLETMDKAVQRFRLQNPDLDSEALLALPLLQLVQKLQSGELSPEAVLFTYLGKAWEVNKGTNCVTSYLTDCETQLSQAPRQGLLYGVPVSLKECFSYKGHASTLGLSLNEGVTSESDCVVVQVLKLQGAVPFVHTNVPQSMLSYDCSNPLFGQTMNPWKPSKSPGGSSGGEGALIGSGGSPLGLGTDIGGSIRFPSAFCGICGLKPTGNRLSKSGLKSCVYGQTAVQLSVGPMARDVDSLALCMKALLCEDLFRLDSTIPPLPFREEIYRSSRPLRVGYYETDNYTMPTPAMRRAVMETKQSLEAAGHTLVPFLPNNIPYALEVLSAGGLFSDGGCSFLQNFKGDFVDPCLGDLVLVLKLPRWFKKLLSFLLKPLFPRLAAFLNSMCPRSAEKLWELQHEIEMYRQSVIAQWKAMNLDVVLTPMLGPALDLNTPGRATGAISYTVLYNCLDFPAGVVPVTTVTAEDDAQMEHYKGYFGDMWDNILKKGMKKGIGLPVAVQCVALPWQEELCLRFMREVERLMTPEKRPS
Procedure: The ability of globally-penetrant and peripherally-restricted FAAH inhibitors (GFI & PFI, respectively) to alter distribution of ABX-002 and ABX-002A was assessed.
Table 5 depicts the inhibition of active metabolite (LL-650177 or PF-044578454) in AUC in the plasma, liver, and brain after prodrug (ABX-002) co-dosing. Tissue distribution studies in mice confirm global & peripheral inhibition of FAAH.

[1] = target: T2, recombinant human FAAH (rhFAAH) (Homo sapiens, UniProt O00519); assay: FAAH substrate evaluation: formation of acid metabolite; type: biochemical; conditions: 0.5 ng/μL rhFAAH, 1 μM test compound, room temperature, pH 8.0, 0-60 minutes
T2 construct: purchased Cayman Chemical (Ann Arbor, MI, USA)
T2 sequence (O00519 1-579): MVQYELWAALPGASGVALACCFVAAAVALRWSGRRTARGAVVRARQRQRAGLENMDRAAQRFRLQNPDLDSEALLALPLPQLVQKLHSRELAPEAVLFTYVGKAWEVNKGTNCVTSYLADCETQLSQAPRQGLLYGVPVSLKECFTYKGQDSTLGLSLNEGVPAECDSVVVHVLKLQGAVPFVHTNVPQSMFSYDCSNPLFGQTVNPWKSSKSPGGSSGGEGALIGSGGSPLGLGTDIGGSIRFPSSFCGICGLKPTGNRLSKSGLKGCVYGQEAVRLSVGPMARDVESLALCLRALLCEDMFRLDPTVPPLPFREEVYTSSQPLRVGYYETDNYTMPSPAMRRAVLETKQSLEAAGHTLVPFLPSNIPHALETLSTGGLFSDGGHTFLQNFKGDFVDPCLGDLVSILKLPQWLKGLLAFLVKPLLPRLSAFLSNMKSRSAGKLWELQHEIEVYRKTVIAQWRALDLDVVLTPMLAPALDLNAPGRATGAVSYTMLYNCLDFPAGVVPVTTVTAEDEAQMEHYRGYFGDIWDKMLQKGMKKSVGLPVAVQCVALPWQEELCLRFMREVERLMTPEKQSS
Procedure: Purified recombinant human FAAH (rhFAAH) was purchased from Cayman Chemical (Ann Arbor, MI, USA). The total volume for each incubation was 400 μL containing a final 0.5 ng/μL rhFAAH, 1 μM test compound, 1.25% ethanol or 1 μM PF-3845 (FAAH inhibitor), and 0.1% bovine serum albumin in Tris-EDTA buffer at pH 8.0). The positive control was LL-341001. The incubation was conducted at the room temperature. At 0, 5, 15, 30 and 60 minutes, an aliquot of 30 μL reaction mixtures was removed and mixed with 300 μL acetonitrile containing 5 ng/mL terfenadine and 10 ng/mL tolbutamide as internal standards to quench the reaction. The resulting mixture was centrifuged at 4000 rpm, 4° C. for 15 minutes, and 100 μL supernatant was ready for LC-MS/MS analysis to measure the formation of acid metabolite.
Acquity Ultra Performance LC system from Waters was used for sample analysis. The chromatography was performed on a reverse phase Kinetex 2.6 μm C18 column, 2.1×30 mm, 100 Å. The mobile phase A comprised of 0.1% formic acid in water and mobile phase B comprised of 0.1% formic acid in acetonitrile with a 2-min run time at the flow rate of 0.8 mL/min for the acid metabolite from positive control or a 1.5 min run time at the flow rate of 0.9 mL/min for the acid metabolite of test compounds. The mass spectrometer (API-5500 and API Q Trap 4000 Applied Biosystems/MDS SCIEX Instruments, Framingham, MA, USA) was operated under ESI positive or negative ion MRM mode.
The formation of acid metabolite was monitored and quantified using one calibration point of 1 μM. The observed rate constant (ke) for the acid metabolite formation was calculated by plotting the metabolite concentration versus time of incubation with the slope being ke and is shown in Table 1.

[2] = tissue distribution (TD) assay in mouse, brain and plasma; type: in vivo, male C57BL/6 mouse
[3] = tested on: T3-responsive target genes; assay: expression of T3-responsive target genes in brain, single PO administration; type: in vivo, male C57BL/6 mouse; conditions: LL-341070 about 0.1 to about 300 μg/kg, T3 about 300 μg/kg
[4] = tested on: T3-responsive target genes; assay: expression of T3-responsive target genes in brain, rat cuprizone model; type: in vivo; conditions: 21 day repeat administration; LL-341070 30 or 100 μg/kg, T3 300 μg/kg; Nanostring
recombinant human FAAH = target: T3, recombinant human FAAH (Homo sapiens, UniProt O00519); assay: FAAH inhibition, apparent IC50 with AMC substrate; type: biochemical; conditions: 30 min preincubation with recombinant human FAAH and AMC; read-out: Apparent IC50s
T3 sequence (O00519 1-579): T2 sequence (O00519 1-579)

[5] = after prodrug (ABX-002) co-dosing, mice

Row | Structure (SMILES) | ke (observed rate constant for the acid metabolite formation) [1] | also measured
1 | CNC(=O)COc1cc(Cl)c(Cc2ccc(O)c(C(C)C)c2)c(Cl)c1 [Compound 1] | A (A = ke is more than or equal to 0.1) | prodrug levels in plasma, liver and brain with FAAH inhibition (FAAH; co-dosing with PFI or GFI, mice): did not change or slightly increased
2 | CNC(=O)COc1cc(Cl)c(Cc2ccc(O)c(C(C)C)c2F)c(Cl)c1 [Compound 31] | A (A = ke is more than or equal to 0.1) | AUC ([2]; male, C57BL/6, mouse, plasma, po, 100 ug/kg): 18.8 ng·h/mL; Brain AUC ([2]; single PO 100 μg/kg, male C57BL/6 mouse, AUC 0-24 hr): 10.9 ng·h/mL; expression of Hr, Dio3, Klf9 in brain [3]: increases expression of Hr, Dio3, Klf9; expression of T3-responsive genes in brain [4]: expression increase was confirmed
3 | CC#CCNC(=O)COc1cc(Cl)c(Cc2ccc(O)c(C(C)C)c2)c(Cl)c1 [Compound 106] | B (B = ke is less than 0.1 and more than 0) | –
4 | CC#CCN(C)C(=O)COc1cc(Cl)c(Cc2ccc(O)c(C(C)C)c2)c(Cl)c1 [Compound 107] | B (B = ke is less than 0.1 and more than 0) | –
5 | CC(C)c1cc(Cc2c(Cl)cc(OCC(=O)N(C)N(C)C)cc2Cl)ccc1O [Compound 108] | B (B = ke is less than 0.1 and more than 0) | –
6 | CC(C)c1c(O)ccc(Cc2c(Cl)cc(OCC(=O)Nc3cncnc3)cc2Cl)c1F [Compound 109] | A (A = ke is more than or equal to 0.1) | –
7 | CC(C)c1c(O)ccc(Cc2c(Cl)cc(OCC(=O)Nc3ccncn3)cc2Cl)c1F [Compound 110] | A (A = ke is more than or equal to 0.1) | –
8 | CC(C)c1cc(Cc2c(Cl)cc(OCC(=O)N[C@@H]3C[C@@H]3F)cc2Cl)ccc1O [Compound 111] | A (A = ke is more than or equal to 0.1) | –
9 | CC(C)c1cc(Cc2c(Cl)cc(OCC(=O)NCCCF)cc2Cl)ccc1O [Compound 112] | A (A = ke is more than or equal to 0.1) | –
10 | COc1ccc(NC(=O)COc2cc(Cl)c(Cc3ccc(O)c(C(C)C)c3)c(Cl)c2)nn1 [Compound 113] | A (A = ke is more than or equal to 0.1) | –
11 | CC(C)c1cc(Cc2c(Cl)cc(OCC(=O)Nc3cccnc3)cc2Cl)ccc1O [Compound 114] | A (A = ke is more than or equal to 0.1) | –
12 | CC(C)c1cc(Cc2c(Cl)cc(OCC(=O)Nc3ccnnc3)cc2Cl)ccc1O [Compound 116] | A (A = ke is more than or equal to 0.1) | –
13 | CC(C)c1cc(Cc2c(Cl)cc(OCC(=O)N3CCCC3)cc2Cl)ccc1O [Compound 117] | B (B = ke is less than 0.1 and more than 0) | –
14 | CC(C)c1cc(Cc2c(Cl)cc(OCC(=O)N3CCC3)cc2Cl)ccc1O [Compound 118] | B (B = ke is less than 0.1 and more than 0) | –
15 | CC(C)c1cc(Cc2c(Cl)cc(OCC(=O)NC(C)(C)C)cc2Cl)ccc1O [Compound 119] | C (C = ke is 0) | –
16 | CC(C)CN(C)C(=O)COc1cc(Cl)c(Cc2ccc(O)c(C(C)C)c2)c(Cl)c1 [Compound 120] | C (C = ke is 0) | –

Row | Structure (SMILES) | ke (observed rate constant for the acid metabolite formation) [1] | also measured
17 | CC(C)CNC(=O)COc1cc(Cl)c(Cc2ccc(O)c(C(C)C)c2)c(Cl)c1 [Compound 121] | C (C = ke is 0) | –
18 | CC(C)c1cc(Cc2c(Cl)cc(OCC(=O)N(C)C(C)C)cc2Cl)ccc1O [Compound 122] | B (B = ke is less than 0.1 and more than 0) | –
19 | CC(C)c1cc(Cc2c(Cl)cc(OCC(=O)N(C)CCO)cc2Cl)ccc1O [Compound 123] | B (B = ke is less than 0.1 and more than 0) | –
20 | CNN(C)C(=O)COc1cc(Cl)c(Cc2ccc(O)c(C(C)C)c2)c(Cl)c1 [Compound 124] | B (B = ke is less than 0.1 and more than 0) | –
21 | CC(C)c1cc(Cc2c(Cl)cc(OCC(=O)N(C)CCF)cc2Cl)ccc1O [Compound 125] | B (B = ke is less than 0.1 and more than 0) | –
22 | CC(C)NC(=O)COc1cc(Cl)c(Cc2ccc(O)c(C(C)C)c2)c(Cl)c1 [Compound 126] | A (A = ke is more than or equal to 0.1) | –
23 | CC(C)c1cc(Cc2c(Cl)cc(OCC(=O)NC3CCC3)cc2Cl)ccc1O [Compound 127] | B (B = ke is less than 0.1 and more than 0) | –
24 | C=CCN(C)C(=O)COc1cc(Cl)c(Cc2ccc(O)c(C(C)C)c2)c(Cl)c1 [Compound 128] | B (B = ke is less than 0.1 and more than 0) | –
25 | CCCN(C)C(=O)COc1cc(Cl)c(Cc2ccc(O)c(C(C)C)c2)c(Cl)c1 [Compound 129] | B (B = ke is less than 0.1 and more than 0) | –
26 | CCN(C)C(=O)COc1cc(Cl)c(Cc2ccc(O)c(C(C)C)c2)c(Cl)c1 [Compound 130] | B (B = ke is less than 0.1 and more than 0) | –
27 | CC(C)c1cc(Cc2c(Cl)cc(OCC(=O)N(C)CC(F)(F)F)cc2Cl)ccc1O [Compound 131] | B (B = ke is less than 0.1 and more than 0) | –
28 | CC(C)c1cc(Cc2c(Cl)cc(OCC(=O)N(C)CC(F)F)cc2Cl)ccc1O [Compound 132] | B (B = ke is less than 0.1 and more than 0) | –
29 | CC(C)c1cc(Cc2c(Cl)cc(OCC(=O)N3CCOCC3)cc2Cl)ccc1O [Compound 133] | A (A = ke is more than or equal to 0.1) | –
30 | O=C(Nc1cccnn1)N1CCC(=Cc2cccc(Oc3ccc(C(F)(F)F)cn3)c2)CC1 [PF-04457845] | – | pIC50 (recombinant human FAAH): 8.52; inhibition of active metabolite AUC, Brain (FAAH; [5]): 83%; inhibition of active metabolite AUC, Liver (FAAH; [5]): 94%; inhibition of active metabolite AUC, Plasma (FAAH; [5]): 94%; Distribution (FAAH): Global
31 | NC(=O)c1cccc(-c2cc(OC(=O)NC3CCCCC3)ccc2O)c1 [URB937] | – | pIC50 (recombinant human FAAH): 7.16; Distribution (FAAH): Peripheral
